Experimental data from patent US7241803B2, “Compounds for inhibition of HIV infection by blocking HIV entry” (New York Blood Center, priority 2002, dated 2007).

How the values were obtained:
[1] = target: gp41 six-helix bundle formed by N36 and C34 (Human immunodeficiency virus type 1 group M subtype B, UniProt P04578); conditions: for inhibitory activity on gp41 six-helix bundle formation (sandwich ELISA): graded concentrations, up to 80 μg/ml, compound preincubated with N36; for inhibition of six-helix bundle formation between N36 and C34 (screening ELISA): single dose 25 μg/ml
Method: ELISA for screening for compounds that inhibit the gp41 six-helix bundle formation. A sandwich ELISA as previously described (23) was used to screen for compounds that inhibit the gp41 six-helix bundle formation. Briefly, peptide N36 (2 μM) was pre-incubated with a test compound at the indicated concentrations at 37° C. for 30 min, followed by addition of C34 (2 μM). In the control experiments, N36 was pre-incubated with C34 at 37° C. for 30 min, followed by addition of the test compound. After incubation at 37° C. for 30 min, the mixture was added to wells of a 96-well polystyrene plate (Costar, Corning Inc., Corning, N.Y.) which were precoated with IgG (2 μg/ml) purified from rabbit antisera directed against the N36/C34 mixture. […] Absorbance at 450 nm was measured using an ELISA reader (Ultra 384, Tecan, Research Triangle Park, N.C.). The percent inhibition by the compounds was calculated as previously described (18) and the concentration for 50% inhibition (IC50) was calculated using the software designated Calcusyn (7), kindly provided by Dr. T. C. Chou (Sloan-Kettering Cancer Center, New York, N.Y.).

gp120-CD4 binding = target: T1, gp120-CD4 binding (Human immunodeficiency virus type 1 group M subtype B, UniProt P03375); parameters: species or system HIV-1; conditions: 10 μg/ml
T1 construct: purchased Immunodiagnostics, Woburn, Mass; (gp120); Genentech Inc., South San Francisco, Calif; (sCD4)
Method: Inhibition of gp120 binding to CD4. Wells of polystyrene plates was coated with 100 μl of sheep anti-gp120 antibody D7324 (Cliniqa, Fallbrook, Calif.) at 2 μg/ml in carbonate buffer (pH 9.6) at 4° C. overnight and blocked with 1% dry fat-free milk in PBS at 37° C. for 1 h. One hundred microliters of recombinant gp120 molecule (Immunodiagnostics, Woburn, Mass.) at 0.5 μg/ml in PBS was added and incubated at 37° C. for 1 h, followed by three washes with PBS-T. Soluble CD4 (sCD4) at 0.25 μg/ml was added in the presence of a compound (25 μM) and incubated at 37° C. for 1 h. After three washes, rabbit anti-sCD4 IgG (0.25 μg/ml in PBS, 100 μl/well) was added and incubated at 37° C. for 1 h. Binding of rabbit anti-sCD4 IgG was determined by sequential addition of biotinylated goat-anti-rabbit IgG, SA-HRP, and TMB. After the reactions were terminated, absorbance at 450 nm was recorded in an ELISA reader (Tecan).
HIV-1 envelope glycoprotein gp120 was captured by the anti-gp120 antibody coated onto wells of polystyrene plates. […] After extensive washes, CD4 molecule bound to gp120 was quantitated by ELISA using anti-CD4 antibody.

CXCR4 = target: T2, CXCR4 (Homo sapiens, UniProt P61073); assay: inhibition of anti-CXCR4 antibody 12G5 binding to CXCR4-expressing cells, cell-based ELISA; conditions: 25 μM
T2 construct: expressed in transfected cells; host or cells: U373-MAGI-CXCR4CEM cells
Method: Inhibition of anti-CXCR4 antibody binding to CXCR4-expressing cells. The inhibition of the binding of anti-CXCR4 antibody to CXCR4-expressing cells was determined using a cell-based ELISA as described previously (52). Briefly, U373-MAGI-CXCR4CEM cells (1×10^5/well) which express CXCR4 molecules were cultured in a 96-well plate at 37° C. overnight. The cells were fixed with 5% formaldehyde at room temperature for 15 min and washed with PBS-T. The cells were incubated with anti-CXCR4 mAb 12G5 at 37° C. for 1 h in the presence or absence of compounds tested. Isotype IgG2a was used as a control.

HIV-1 SF2 (clade B, X4) = assay: infection by laboratory-adapted HIV-1 strain, p24 production; assay type: cell-based
Description: Assessment of anti-HIV-1 infectivity. […] Reactions were terminated by addition of 1N H2SO4.

gp41 six-helix bundle formed by N36 and C34, sequence (P04578 546-581): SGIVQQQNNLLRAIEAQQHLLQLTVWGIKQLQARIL
T2 sequence (P61073 whole entry): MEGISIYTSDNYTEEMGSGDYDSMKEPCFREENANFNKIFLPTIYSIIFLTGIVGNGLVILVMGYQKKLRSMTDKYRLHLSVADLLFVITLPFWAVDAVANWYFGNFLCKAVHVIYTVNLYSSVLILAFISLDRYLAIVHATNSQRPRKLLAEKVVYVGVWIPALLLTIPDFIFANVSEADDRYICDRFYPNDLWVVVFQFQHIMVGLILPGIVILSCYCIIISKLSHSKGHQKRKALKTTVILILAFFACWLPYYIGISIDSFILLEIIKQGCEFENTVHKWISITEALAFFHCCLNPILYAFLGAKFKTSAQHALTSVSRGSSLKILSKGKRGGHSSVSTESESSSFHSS

`Cc1ccc(C)n1-c1ccc(C(=O)O)c(O)c1` [NB-2] was tested. Which “inhibitory activity on gp41 six-helix bundle formation (sandwich ELISA)” value [1] did it give?
Its value is “significantly inhibited”.

And the “inhibition of six-helix bundle formation between N36 and C34 (screening ELISA)” value [1]?
The value was “significantly inhibited”.

And the “inhibition of gp120-CD4 binding” value (gp120-CD4 binding)?
The value was “did not significantly inhibited”.

And the “inhibition of 12G5 binding to U373-MAGI-CXCR4CEM cells” value (CXCR4)?
Its value is “no inhibitory activity”.

What about the “IC50 (μg/ml) for inhibition of p24 production” value (HIV-1 SF2 (clade B, X4)) of the same molecule?
The value was 0.44 ± 0.03 µg/mL.

For `O=C(O)c1cc(-n2cccc2)ccc1Cl` [NB-64], which “inhibitory activity on gp41 six-helix bundle formation (sandwich ELISA)” value [1] is on record?
The value was “significantly inhibited”.

What about the “inhibition of six-helix bundle formation between N36 and C34 (screening ELISA)” value [1] of the same molecule?
The value was “significantly inhibited”.

And the “inhibition of gp120-CD4 binding” value (gp120-CD4 binding)?
Its value is “did not significantly inhibited”.

What about the “inhibition of 12G5 binding to U373-MAGI-CXCR4CEM cells” value (CXCR4) of the same molecule?
Its value is “no inhibitory activity”.

What about the “IC50 (μg/ml) for inhibition of p24 production” value (HIV-1 SF2 (clade B, X4)) of the same molecule?
Its value is 1.34 ± 0.06 µg/mL.
